Experimental data: patent US20230158034A1, “CO-TREATMENT WITH CDK4/6 AND CDK2 INHIBITORS TO SUPPRESS TUMOR ADAPTATION TO CDK2 INHIBITORS” (Pfizer Inc., priority 2020, published 2023)

Assays:
[1] = system: MCF10A, RPE-hTERT, MCF7 and OVCAR3 cells; assay: Cell-cycle progression, mitosis and proliferation by time-lapse imaging; type: cell-based, human; details: 1 μM palbociclib (after the upcoming mitosis) or 9 μM RO3306 (toward end of cell cycle), MCF10A
Source text: (§1) The DHB sensor is localized to the nucleus when it is not phosphorylated. Upon phosphorylation, the nuclear localization signal is masked, the nuclear export signal is unmasked, and the sensor steadily translocates to the cytoplasm in response to increasing CDK2 activity (FIG. 1A). Thus, kinase activity can be quantified by the ratio of the cytoplasmic to nuclear fluorescence intensity (C/N ratio) of the DHB sensor. […] Asynchronously cycling cells were first imaged for approximately 20 hr in the absence of drug to establish the cell-cycle phase of each cell; the movie was then paused to add drug, and then imaging was continued for another 1-2 days. Because the cells were cycling asynchronously, all cell-cycle phases with one drug treatment were sampled. This allowed the present inventors to computationally isolate traces for cells that received drug at any time since the completion of anaphase.
(§2) Cells were seeded at least 24 hr prior to imaging in phenol-red-free full-growth medium in glass-bottom 96-well plates (CellVis P96-1.5H-N) that were coated with collagen prior to seeding. The seeding density was chosen such that the cells would remain sub-confluent until the end of the imaging period. Cells were first imaged for 16-20 hr in full-growth media without drug. The movie was then briefly paused and the full-growth media was replaced with full-growth media containing drug at the desired concentration. The plate was then re-inserted into the microscope and aligned to its prior position and imaging was continued for an additional 24-48 hr. Images were acquired every 12 min (for MCF10A or RPE-hTERT) or every 20 min (for MCF7 or OVCAR3) on a Nikon Eclipse Ti or Ti2 microscope with a 10×0.45 NA objective in a humidified, 37° C. chamber at 5% CO2. Exposure times for all movies for all channels were kept under 500 ms per timepoint to minimize phototoxicity. Cell tracking was performed using published MATLAB scripts (Cappell et al., 2016), as described previously (Arora et al., 2017). The tracking code is available for download at https://github.com/scappell/Cell_tracking. Cell counts over time were obtained by counting the number of segmented nuclei in each frame of the movie.

[2] = system: CDK2 activity (DHB sensor phosphorylation); assay: DHB-based CDK2 activity sensor, single-cell time-lapse imaging (C/N ratio); set-up: species or system human
Source text: as §1, §2
Asynchronously cycling cells that divided and received drug treatments during the imaging period were initially segmented into categories based on the cells' time of anaphase relative to the time of drug addition. These cells were then additionally subcategorized based on their DHB cytoplasmic/nuclear (C/N) ratio after the mitotic event. C/N ratio was calculated by quantifying the ratio of cytoplasmic to nuclear mean DHB fluorescence, with the cytoplasmic component calculated as the mean of the top 50th percentile of a ring of pixels outside of the nuclear mask.
Cells were classified as CDK2^inc if the DHB C/N ratio was above 0.5 units 3 hr after anaphase, otherwise they were classified as CDK2^low. Figure legends indicate whether only CDK2^inc cells or whether all cells are plotted. The median of the single-cell traces in a subcategory was then used to create median trace with 95% confidence interval representative of the particular subcategory. All cell trace analysis was done using custom MATLAB scripts and code is available upon request.

[3] = system: Rb, Nucleolin, Cdc6 and Nbs1 phosphorylation; assay: Immunofluorescence and western blotting of endogenous CDK2 substrates; type: cell-based, human; details: 10 μM 3 MB-PP1 for 1 hr, RPE-hTERT CDK2^F80G/F80G cells
Description: Cells were fixed for 15 minutes with freshly prepared 4% paraformaldehyde, washed twice with PBS, and incubated with a blocking buffer (3% BSA in PBS) for 1 hr at room temperature. Permeabilization was carried out using 0.2% Triton-X 100 for 15 min at 4° C. Primary antibody was diluted in blocking buffer and incubated with cells overnight at 4° C. followed by three washes with 1×PBS. Secondary antibodies conjugated to Alexa Fluor 488, Alexa Fluor 546 or Alexa Fluor 647 were incubated for 1 hr followed by three washes with 1×PBS. DNA was stained using Hoechst 33342 dye for 10 minutes at 1:10000 (ThermoFisher H3570). Images were acquired on a Nikon Eclipse Ti or Ti2 microscope with a 10×0.45 NA objective. DNA content was determined by taking the integrated intensity of each cell's Hoechst signal. Cells were delineated as 3-4N DNA content by plotting a histogram of DNA content and drawing a threshold and the end of the 2N peak.
Lysates were prepared using 1×LDS sample buffer (ThermoFisher NP007) using equal numbers of cells. Proteins were separated using NuPAGE precast polyacrylamide gels (ThermoFisher NP0301). Total protein was quantified using Azure Red Dye (Azure Biosystems AC2124) and was used to normalize the signal from antibodies of interest. Primary antibodies used are specified under the “Antibodies” section. HRP-conjugated or IR700 and IR800 labeled fluorescent secondary antibodies were used for visualization (Cell Signaling Technology 7074 and 7076).

Row | SMILES | cell-cycle arrest [1] | DHB phosphorylation in RPE-hTERT CDK2^F80G/F80G cells as compared to wild-type RPE-hTERT cells ([2]; 9 μM RO3306) | effect on DHB sensor phosphorylation ([2]; 9 μM RO3306, MCF10A) | Nbs1 phosphorylation [3] | DHB sensor phosphorylation ([2]; 10 μM 3 MB-PP1, RPE-hTERT CDK2^F80G/F80G cells) | DHB sensor phosphorylation ([2]; 10 μM 3 MB-PP1, wild-type RPE-hTERT cells)
1 | O=C1NC(=NCc2cccs2)S/C1=C\c1ccc2ncccc2c1 [RO3306] | G2 arrest | much greater drop in DHB phosphorylation | minimal immediate effect | – | – | –
2 | Cc1cccc(Cc2nn(C(C)(C)C)c3ncnc(N)c23)c1 [3 MB-PP1, 1-(tert-butyl)-3-(3-methylbenzyl)-1H-pyrazolo[3,4-d]pyrimidin-4-amine] | – | – | – | loss of Nbs1 phosphorylation | reduction in DHB sensor phosphorylation that quickly rebounded | not affected
